Experimental data reported in patent US20050089524A1, “Compositions and compounds for use as molecular adjuvant for a nicotine vaccine” (priority 2002, published 2005).
Square brackets hold non-standard residues; d marks the D form. Ends that are not written are not given here. Peptide text beside a SMILES is read from it.

Assays:
human umbilical artery = assay: Smooth muscle contraction of human umbilical artery; type: cell-based; settings: for EC50: concentration resulting in 50% maximum contraction; for pD2 ± SE: −log EC50 (M), mean ± SE, n 3
Method: (§1) Pharmacologic assays. […] Statistical analysis of the values obtained from pharmacologic assays was performed using one-way analysis of variance (ANOVA).

human PMNs = assay: MPO release from human PMNs; type: cell-based; settings: for EC50: concentration resulting in 50% maximum release of myeloperoxidase; for pD2 ± SE: −log EC50 (M), mean ± SE, n 3
Method: as §1

C5aR = target: T1, C5aR (Homo sapiens, UniProt P21730); assay: Binding affinity for C5aRs on human PMNs (125I-C5a competition)
T1 construct: endogenous in cells; host or cells: intact human PMNs (polymorphonuclear leukocytes)
T1 sequence (P21730 1-350): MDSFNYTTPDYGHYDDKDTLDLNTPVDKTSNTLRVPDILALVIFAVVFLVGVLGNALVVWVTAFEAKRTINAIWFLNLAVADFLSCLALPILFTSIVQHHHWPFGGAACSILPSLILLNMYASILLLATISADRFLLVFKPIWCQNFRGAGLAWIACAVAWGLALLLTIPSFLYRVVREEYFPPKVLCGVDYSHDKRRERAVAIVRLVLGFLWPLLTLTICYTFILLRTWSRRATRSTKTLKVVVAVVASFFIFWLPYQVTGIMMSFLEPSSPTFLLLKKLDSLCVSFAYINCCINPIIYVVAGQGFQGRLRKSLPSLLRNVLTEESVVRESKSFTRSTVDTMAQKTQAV
Method: Pharmacologic assays. C5a-like agonistic activity was assessed by the ability of the peptides to induce smooth muscle contraction of human umbilical artery and […] from human PMNs according to previously published methods (Sanderson et al., 1994, supra; Sanderson et al., J. Med. Chem. 38, 3669, 1995; Finch et al., J. Med. Chem. 40, 877, 1997). Full concentration-response curves were generated for individual peptides and natural C5a in each assay and the EC50 values (the concentration of peptide producing 50% of the maximal response to each peptide) were calculated. pD2 transforms [−log EC50 (M)] were calculated for each concentration-response curve and reported as the mean±SE. Peptide binding affinity to the C5aR was evaluated on intact human PMNs by a competition assay using ^125I-C5a according to previously described methods (Sanderson et al., 1995, supra; Finch et al., 1997, supra). Statistical analysis of the values obtained from pharmacologic assays was performed using one-way analysis of variance (ANOVA).

[1] = system: 51Cr-labeled P815S (HBsAg transfectant) target cells; assay: HBsAg-specific CTL response of immunized mice (51Cr-release assay); type: in vivo, BALB/c mice; settings: for antigen-specific CTL response: three s.c. injections of 50 μg at 21 day intervals, no added adjuvant; for % Specific Lysis: s.c. in PBS, boost day 21, spleen cells day 42
MUC1 epitope peptide = assay: Serum antibody response to MUC1 epitope in immunized mice (RIA); type: in vivo; settings: C57Bl6 and Balb/c mice, 100 μg i.p. with RIBI adjuvant, three immunizations, sera at 6 weeks
Description: iii. Animal Models. The strains of mice used for this example were inbred females 6 to 12 week old C57Bl6(H-2^b) and Balb/c (H-2^d), which were obtained from Jackson labs (Bar Harbor, Me.). […] The MUC1 peptide selected for these studies contained a motif that may bind to the H-2K^b molecule of the C57Bl6 mice; therefore, a strain of mouse that lacked this class I molecule binding motif (Balb/c) was also studied to determine the relative contribution of the class I binding motif to the antigen presentation properties of these peptides.
iv. Immunization protocol. Preimmune sera were obtained from mice, which were subsequently immunized intraperitoneally with 100 μg of the indicated peptide with RIBI adjuvant (MPL+TDM+CWS) (Sigma Immunochemicals). Animals were boosted twice at two week intervals using the same injection procedure. Sera were obtained following three immunizations (at 6 weeks).
v. Analysis of serum antibody responses. For radioimmunoassay (RIA), anti-peptide antibodies were determined, before and at different time points after immunization, in 96-well microtiter plates (Dynatech Laboratories, Inc.). Plates were coated with 50 μl of a 100 μg/ml appropriate peptide in phosphate-buffered saline (PBS) pH 7.4 solution overnight at 4° C. The wells were blocked by incubation with 5% dry milk in PBS pH 7.4 for at least two hours. Anti-peptide antibody titers were determined using serial dilutions of sera. The sera were diluted with PBS containing 0.05% Tween-20, pH 7.4 (washing buffer) and 50 μl of each dilution was incubated at 37° C. for 1 hour. The wells were then drained, washed 4 times with PBS-Tween and 50 μl of ^125I-goat anti-mouse Ab (1-2×10^4 cpm/well) was added and incubated for 1 hr at 25° C. After washing, specific radioactivity was recorded in a gamma counter (1272 CliniGamma, LKB).
vi. Experimental groups. […]

MUC1 peptide = assay: MUC1-specific antibody isotype titers in immunized mice (ELISA); type: in vivo; settings: for MUC1 specific Ab titer, IgA / MUC1 specific Ab titer, IgG1 / MUC1 specific Ab titer, IgG2a / MUC1 specific Ab titer, IgG2b / MUC1 specific Ab titer, IgG3 / MUC1 specific Ab titer, IgM: five C57BL6 mice, mean titer of responders, sera screened against MUC1 peptide

Compound	EC50 (human umbilical artery)	pD2 ± SE (human umbilical artery)	EC50 (human PMNs)	pD2 ± SE (human PMNs)	EC50 (C5aR)	IC50 (C5aR)	% Specific Lysis ([1]; Effector:Target Ratio 6.25:1)	% Specific Lysis ([1]; Effector:Target Ratio 12.5:1)	% Specific Lysis ([1]; Effector:Target Ratio 25:1)	% Specific Lysis ([1]; Effector:Target Ratio 50:1)	antibody response to MUC1 epitope (RIA) (MUC1 epitope peptide)	also measured
CC[C@H](C)[C@H](N)C(=O)N1CCC[C@H]1C(=O)N[C@@H](CCC(N)=O)C(=O)N[C@@H](CO)C(=O)N[C@@H](CC(C)C)C(=O)N[C@@H](CC(=O)O)C(=O)N[C@@H](CO)C(=O)N[C@@H](Cc1c[nH]c2ccccc12)C(=O)N[C@@H](Cc1c[nH]c2ccccc12)C(=O)N[C@H](C(=O)N[C@@H](CO)C(=O)N[C@@H](CC(C)C)C(=O)N[C@@H](CCCNC(=N)N)C(=O)N[C@@H](CCCNC(=N)N)C(=O)N[C@@H](Cc1ccc(O)cc1)C(=O)N[C@@H](CO)C(=O)N[C@@H](Cc1ccccc1)C(=O)N[C@@H](CCCCN)C(=O)N1CCC[C@H]1C(=O)N[C@@H](CCSC)C(=O)N1CCC[C@H]1C(=O)N[C@@H](CC(C)C)C(=O)N[C@H](C)C(=O)N[C@@H](CCCNC(=N)N)C(=O)NCC(=O)O)[C@@H](C)O (H-IPQSLDSWWTSLRRYSFKPMPL[dA]RG-OH; N-terminus and C-terminus assumed)	6.78 µM	5.17 ± 0.13	2.56 µM	5.59 ± 0.28	17 µM	17 µM						
CC[C@H](C)[C@H](N)C(=O)N1CCC[C@H]1C(=O)N[C@@H](CCC(N)=O)C(=O)N[C@@H](CO)C(=O)N[C@@H](CC(C)C)C(=O)N[C@@H](CC(=O)O)C(=O)N[C@@H](CO)C(=O)N[C@@H](Cc1c[nH]c2ccccc12)C(=O)N[C@@H](Cc1c[nH]c2ccccc12)C(=O)N[C@H](C(=O)N[C@@H](CO)C(=O)N[C@@H](CC(C)C)C(=O)N[C@@H](CCCNC(=N)N)C(=O)N[C@H](C(=O)N[C@@H](CCCNC(=N)N)C(=O)N[C@@H](CCCNC(=N)N)C(=O)N[C@@H](Cc1ccc(O)cc1)C(=O)N[C@@H](CO)C(=O)N[C@@H](Cc1ccccc1)C(=O)N[C@@H](CCCCN)C(=O)N1CCC[C@H]1C(=O)N[C@@H](CCSC)C(=O)N1CCC[C@H]1C(=O)N[C@@H](CC(C)C)C(=O)N[C@H](C)C(=O)N[C@@H](CCCNC(=N)N)C(=O)O)C(C)C)[C@@H](C)O (H-IPQSLDSWWTSLRVRRYSFKPMPL[dA]R-OH; N-terminus assumed)	0.18 µM	6.67 ± 0.22	2.15 µM	5.61 ± 0.19	0.529 µM	0.525 µM						antigen-specific CTL response [1]: able to elicit a specific CTL response that was significantly above background levels
CC[C@H](C)[C@H](N)C(=O)N1CCC[C@H]1C(=O)N[C@@H](CCC(N)=O)C(=O)N[C@@H](CO)C(=O)N[C@@H](CC(C)C)C(=O)N[C@@H](CC(=O)O)C(=O)N[C@@H](CO)C(=O)N[C@@H](Cc1c[nH]c2ccccc12)C(=O)N[C@@H](Cc1c[nH]c2ccccc12)C(=O)N[C@H](C(=O)N[C@@H](CO)C(=O)N[C@@H](CC(C)C)C(=O)N[C@@H](Cc1ccc(O)cc1)C(=O)N[C@@H](CO)C(=O)N[C@@H](Cc1ccccc1)C(=O)N[C@@H](CCCCN)C(=O)N1CCC[C@H]1C(=O)N[C@@H](CCSC)C(=O)N1CCC[C@H]1C(=O)N[C@@H](CC(C)C)C(=O)N[C@H](C)C(=O)N[C@@H](CCCNC(=N)N)C(=O)O)[C@@H](C)O (H-IPQSLDSWWTSLYSFKPMPL[dA]R-OH; N-terminus assumed)	0.21 µM	6.68 ± 0.17	1.58 µM	5.80 ± 0.04	3.69 µM	3.72 µM	1%	2%	4%	6%		antigen-specific CTL response [1]: lack of a CTL response
CC[C@H](C)[C@H](NC(=O)[C@H](CCCNC(=N)N)NC(=O)[C@H](CCCNC(=N)N)NC(=O)[C@H](CCCNC(=N)N)NC(=O)[C@@H](C)NC(=O)[C@H](CC(C)C)NC(=O)[C@@H]1CCCN1C(=O)[C@H](CCSC)NC(=O)[C@@H]1CCCN1C(=O)[C@H](CCCCN)NC(=O)[C@H](Cc1ccccc1)NC(=O)[C@H](CO)NC(=O)[C@@H](N)Cc1ccc(O)cc1)C(=O)N1CCC[C@H]1C(=O)N[C@@H](CCC(N)=O)C(=O)N[C@@H](CO)C(=O)N[C@@H](CC(C)C)C(=O)N[C@@H](CC(=O)O)C(=O)N[C@@H](CO)C(=O)N[C@@H](Cc1c[nH]c2ccccc12)C(=O)N[C@@H](Cc1c[nH]c2ccccc12)C(=O)N[C@H](C(=O)N[C@@H](CO)C(=O)N[C@@H](CC(C)C)C(=O)O)[C@@H](C)O (H-YSFKPMPL[dA]RRRIPQSLDSWWTSL-OH; N-terminus and C-terminus assumed)	39.4 µM	4.41 ± 0.06	> 1000 µM	>3	465 µM	468 µM						
IPQSLDSWWTSL [free L^d MHC class I-restricted HBsAg peptide S28-39]							3%	3%	5%	7%		
IPQSLDSWWTSLRR							0%	1%	2%	2%		
YKQGGFLGL [peptide 1]											no appreciable increase in antibody response	
YKQGGFLGL-KLH: MUC1 epitope conjugated to keyhole limpet hemocyanine (KLH) (also: conjugated to KLH) [reference compound]												MUC1 specific Ab titer, IgA (MUC1 peptide): 0; MUC1 specific Ab titer, IgG1 (MUC1 peptide): 100 (2/5); MUC1 specific Ab titer, IgG2a (MUC1 peptide): 0; MUC1 specific Ab titer, IgG2b (MUC1 peptide): 0; MUC1 specific Ab titer, IgG3 (MUC1 peptide): 0; MUC1 specific Ab titer, IgM (MUC1 peptide): 5010 (4/5)
YKQGGFLGLYSFKPMPLaR [peptide 3]											substantial responses were produced	MUC1 specific Ab titer, IgA (MUC1 peptide): 0; MUC1 specific Ab titer, IgG1 (MUC1 peptide): 0; MUC1 specific Ab titer, IgG2a (MUC1 peptide): 1260; MUC1 specific Ab titer, IgG2b (MUC1 peptide): 1780 (5/5); MUC1 specific Ab titer, IgG3 (MUC1 peptide): 0 (5/5); MUC1 specific Ab titer, IgM (MUC1 peptide): 6310 (5/5); isotypes of the anti-peptide antibodies produced (MUC1 peptide; immunized mice, FIG. 3): IgM, IgG2a, and IgG2b; specificity of the antibody response for the MUC1 epitope (MUC1 peptide; immunized mice, FIG. 4): includes a high percentage of antibodies that are specific for the MUC1 epitope
YSFKPMPLaRKQGGFLGL [peptide 4]											immune responses were not produced	
